Data on 3 compounds can be found in US20210403415A1, “COMPOUNDS AND METHODS TO ATTENUATE TUMOR PROGRESSION AND METASTASIS” (THE TRUSTEES OF INDIANA UNIVERSITY, priority 2018, published 2021).

Experiment [1] has as its target TEAD2 (Homo sapiens, UniProt Q15562). Conditions: cited from earlier work.
Experiment [2] relates to CTGF transcript levels. As to the kind of experiment: qRT-PCR of CTGF transcript in GBM43 cells. The class given is cell-based, human. To be noted: FIG. 8C.
The target of experiment [3] is TEAD4.Yap1 interaction (Homo sapiens, UniProt Q15561). As to the kind of experiment: Fluorescence polarization, GST-TEAD4 with FAM-Yap60-99 peptide. The class given is binding. More on the design: TEAD4 (217-434), TEAD4 (217-434) Cys367Ser mutant and Yap1 (Full-length) were expressed as GST-fusion proteins; made in house; host or cells: E. coli BL-21 (DE3), pGEX-6P-1. Conditions: FP assay, 24 h at 4° C. How it is done: (§1) GST-TEAD4, GST-TEAD4 Cys367Ser mutant or HIS-TEAD2 interaction with Yap1 was investigated using a fluorescently-labeled peptide (FAM-Yap60-99), consisting of FAM-labeled TEAD-binding peptide fragment of Yap1 (FAM-[…] TVPMCLRKLPASFCKPP), which has a disulfide bridge (American Peptide, Sunnyvale, Calif.). Addition of FAM-Yap60-99 to the TEAD was followed by measurement of changes in polarization. 40 μL of 125 nM GST-TEAD4 WT or GST-TEAD4 Cys367Ser in assay buffer (PBS with 0.01% v/v Triton-X100) or 40 μL of 64 nM HIS-TEAD2 was added to a 384-well black polystyrene plate (Cat. No. 262260; Nunc, Roskilde, Denmark) and incubated with 5 μL of […] serially diluted compounds in assay buffer supplemented with 20% v/v DMSO for 24 h at 4° C. Finally, 5 μL of 160 nM FAM-Yap60-99 peptide was added, the plate centrifuged, and the polarization was measured on an Envision Multilabel Plate Reader (PerkinElmer, Waltham, Mass.) using a filter set with excitation and emission wavelengths of 485 and 535 nm, respectively. Percent inhibition was calculated as relative to a minimum inhibition control, which is without compound, and a maximum inhibition control, which is without a TEAD.
For the determination of the inhibition efficiency kinact/K1, the protein compound incubation time was varied between […], prior to the addition of the FAM-Yap60-99 peptide and fluorescence polarization measurements. The progressive decrease in TEAD activities were plotted against time for all 10 concentrations ([…]) of the compounds and the observed rate of inhibition (kobs) was calculated by fitting a simple exponential function.
The observed rate of inhibition was then plotted against the concentration of the compound and a […] function kobs=kinact[Inhibitor]/K1+[Inhibitor] was fitted to determine the kinact and K1 values.

Experiment [4] relates to patient-derived GBM43 glioblastoma spheroids. As to the kind of experiment: GBM43 spheroid viability (Alamar blue). The class given is cell-based, human. Conditions: three-dimensional spheroids. Here is the method:
Early-passage GBM43 cells were cultured in ultralow adherence plates (Corning Inc.) at 1 to 2×10^3 cells/mL in DMEM supplemented with 1% […] (Invitrogen), 2% B27 (Invitrogen), 25 ng/mL epidermal growth factor (EGF, 25 ng/mL fibroblast growth factor (FGF) (R&D Systems, Inc.), […], 2 ng/mL platelet growth factor, and 100 ng/mL each of penicillin and streptomycin (Invitrogen Inc.). Individual cells were recovered from spheres by incubation with Accutase (Sigma-Aldrich) for 10-15 minutes. Cells (50-100/well) were then seeded in fresh sphere-forming media in 96-well plates. After 2-3 days, Neurospheres containing 6 to 8 cells were treated with compounds 1, 2, and 5.
HEK-293 were cultured in DMEM with glutamine (Cellgro, Manassas, Va.) supplemented with 10% FBS and 1% penicillin/streptomycin in a 5% CO2 atmosphere at 37° C. Tumors were expanded by passage in the flank of NOD/SCIDγnull mice. To generate GBM43 cell lines, tumors were harvested, disaggregated, and maintained in 2.5% FBS for 14 days on Matrigel-coated plates (BD Biosciences) to remove murine fibroblasts. In-vitro GBM43 cell lines were propagated in DMEM with 10% FBS for no more than 7 passages. Cell line identity was confirmed by DNA fingerprint analysis (IDEXX BioResearch) for species and baseline short-tandem repeat analysis testing. GBM43 spheroids were generated by plating early-passage cells at 2.5×10^4 cells per well in 96-well ultralow attachment plates (Corning Inc.) in DMEM/F12 (1:1; GIBCO) supplemented with 2% B27 supplement (GIBCO), 20 ng/mL epidermal growth factor (EGF), and 20 ng/mL fibroblast growth factor (FGF) (Peprotech) for 2 days. The spheroids were then treated with compounds 1, 2, and 5 and growth analyzed by Alamar blue staining.

In experiment [5] the target is T1, TEAD2 binding to Yap1 (Homo sapiens, UniProt Q15562).
T1 construct: TEAD2 (217-447) was expressed as N-terminal HIS-fusion protein; made in house; host or cells: E. coli BL-21 (DE3), pET-28a
As to the kind of experiment: Fluorescence polarization, HIS-TEAD2 with FAM-Yap60-99 peptide. Conditions: 24 h at 4° C. How it is done: as §1

Experiment [6] deals with uPAR.uPA protein-protein interaction (Homo sapiens, UniProt Q03405). As to the kind of experiment: Fluorescence polarization, urokinase receptor with peptide AE147. The class given is binding. To be noted: 24 h at 4° C. From the text:
(§2) The selectivity of the compounds was explored with two unrelated protein-protein interactions between (i) the urokinase receptor (uPAR) and its ligand urokinase (uPA); and (ii) the a subunit of the voltage-gated calcium channel Cav2.2 with its β subunit Cavβ3. […] Both proteins have cysteine residues capable of forming covalent adducts.
(§3) FIG. 4D illustrates BLI measurements of the binding of TEAD4 to captured Yap when biotin-labeled GST-Yap1 was captured onto streptavidin-conjugated biolayer interferometry sensors which were dipped into varying concentrations of TEAD4. (mean±s.d.; n=3). […] FIG. 4F illustrates measured fluorescence polarization when increasing concentration of HIS-TEAD2 was mixed with 16 nM FAM-Yap60-99 peptide (mean±s.d.; n=3). FIG. 4G illustrates measured fluorescence polarization when HIS-TEAD2 was incubated with increasing concentration of compounds for 24 h at 4° C. followed by addition of FAM-Yap60-99 (mean±s.d.; n=3). FIG. 4H illustrates measured fluorescence polarization when urokinase receptor (uPAR) was incubated with varying concentrations of compounds for 24 h at 4° C. followed by addition of a urokinase-derived fluorescently-labeled peptide AE147 (mean±s.d.; n=3). […]

The target in experiment [7] is Cav2.2 α·β protein-protein interaction (Homo sapiens, UniProt P54284). As to the kind of experiment: Fluorescence polarization, Cavβ3 with labeled α-subunit peptide. The class given is binding. To be noted: 24 h at 4° C.
Text: as §2, §3

Experiment [8] deals with T2, TEAD4 (Homo sapiens, UniProt Q15561). As to the kind of experiment: Whole protein ESI mass spectrometry, adduct formation. The class given is binding. Details: TEAD4 (217-434), TEAD4 (217-434) Cys367Ser mutant and Yap1 (Full-length) were expressed as GST-fusion proteins; GST (N, cleaved yes); made in house; host or cells: E. coli BL-21 (DE3), pGEX-6P-1. Conditions: 10 μM TEAD4, 200 μM compound, 24 h at 4° C. Here is the method:
The samples were centrifuged at 20,000×g for […] to remove precipitants before being injected into an empty column on an Agilent 1200 liquid chromatography system (Agilent, Santa Clara, Calif.), using 80% Buffer A (H2O, 5 mM NH4OAc) and 20% Buffer B (ACN, 5 mM NH4OAc), and the masses were detected on an Agilent 6520 Accurate Mass Q-TOF.
It was determined whether a covalent bond formed between inventive compounds and TEAD4. […] The covalent adduct formation by compound 2 was relatively fast (FIG. 3G), reaching nearly 100% adduct formation after 30 min incubation with TEAD4. Because the rate of inhibition developed over a longer timescale (FIG. 3C), compound 2 is proposed to induce a slow conformational change in TEAD4 that prevents its interaction with Yap1. To rule out the possibility that compound 2 induces slow aggregation of TEAD4, and not the proposed slow conformational change, GST-TEAD4 was incubated with DMSO compound 2 for 24 h at 4° C., followed by injection into an SEC column (FIG. 3H). […] A slight increase in dimer formation for the TEAD4 sample incubated with compound 2 occurred compared to the sample incubated with DMSO. […] Furthermore, it is highly unlikely that Cys-367 oxidation was responsible for the lack of 100% inhibition at longer times since it has been shown that covalent bond formation is rapid and complete within less than an hour.
Target sequence in this assay (Q15561 217-434): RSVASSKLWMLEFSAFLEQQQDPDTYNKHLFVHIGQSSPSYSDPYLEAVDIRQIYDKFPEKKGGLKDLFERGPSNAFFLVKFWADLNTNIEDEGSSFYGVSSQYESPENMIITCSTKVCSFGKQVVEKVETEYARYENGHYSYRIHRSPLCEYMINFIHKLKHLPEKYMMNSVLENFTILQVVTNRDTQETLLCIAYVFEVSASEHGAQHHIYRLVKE

The target of experiment [9] is T2, TEAD4. As to the kind of experiment: Covalent streptavidin pull down of myc-TEAD4 from HEK293 cell lysates. Details: expressed in transfected cells; host or cells: HEK293. To be noted: added to cell lysates. The class given is cell-based. How it is done:
HEK293 cells transfected with the myc-TEAD4 construct were grown for 48 h and then treated with DMSO or with 25 μM of compound 2 for an additional 48 h. Cells were then harvested in lysis buffer (50 mM Tris-HCl, pH 7.3, 150 mM NaCl, 0.5 mM EDTA, 1% Triton X-100, PhosSTOP phosphatase inhibitor cocktail, and EDTA-free protease inhibitors cocktail). Cell lysates containing 2 mg of protein were incubated with the indicated compounds or DMSO for 24 h. Extracts were then incubated with Dynabeads M-280 Streptavidin (Sigma-Aldrich) for 2 h at 4° C. Dynabeads were then washed and bound proteins were denatured and eluted according to the manufacturer's instructions. Relative levels of myc-TEAD4 from each complex were measured by immunoblot analysis with the anti-c-Myc antibody (1:5,000, Sigma-Aldrich).
Target sequence in this assay (Q15561 whole entry, the tested form may be a part): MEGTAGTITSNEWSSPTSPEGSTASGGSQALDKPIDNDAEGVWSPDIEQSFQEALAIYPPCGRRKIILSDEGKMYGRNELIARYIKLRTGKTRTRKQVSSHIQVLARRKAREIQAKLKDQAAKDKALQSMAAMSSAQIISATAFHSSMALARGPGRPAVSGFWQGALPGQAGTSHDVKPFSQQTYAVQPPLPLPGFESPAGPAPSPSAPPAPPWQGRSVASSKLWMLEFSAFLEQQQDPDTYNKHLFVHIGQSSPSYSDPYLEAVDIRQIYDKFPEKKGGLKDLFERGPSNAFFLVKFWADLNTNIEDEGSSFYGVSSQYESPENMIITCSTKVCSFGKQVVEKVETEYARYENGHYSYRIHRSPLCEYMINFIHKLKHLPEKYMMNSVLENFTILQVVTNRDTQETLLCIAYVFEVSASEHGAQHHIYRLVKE

T1 sequence (Q15562 217-447): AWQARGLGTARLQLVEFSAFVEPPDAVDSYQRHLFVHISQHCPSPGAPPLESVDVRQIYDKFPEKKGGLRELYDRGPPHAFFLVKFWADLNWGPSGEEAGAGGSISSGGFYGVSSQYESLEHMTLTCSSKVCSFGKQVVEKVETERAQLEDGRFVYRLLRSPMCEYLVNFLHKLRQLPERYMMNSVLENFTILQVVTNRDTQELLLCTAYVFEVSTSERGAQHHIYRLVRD
Sequence of TEAD4.Yap1 interaction (Q15561 217-434): as the sequence (Q15561 217-434) above
Sequence of TEAD2 (Q15562 whole entry): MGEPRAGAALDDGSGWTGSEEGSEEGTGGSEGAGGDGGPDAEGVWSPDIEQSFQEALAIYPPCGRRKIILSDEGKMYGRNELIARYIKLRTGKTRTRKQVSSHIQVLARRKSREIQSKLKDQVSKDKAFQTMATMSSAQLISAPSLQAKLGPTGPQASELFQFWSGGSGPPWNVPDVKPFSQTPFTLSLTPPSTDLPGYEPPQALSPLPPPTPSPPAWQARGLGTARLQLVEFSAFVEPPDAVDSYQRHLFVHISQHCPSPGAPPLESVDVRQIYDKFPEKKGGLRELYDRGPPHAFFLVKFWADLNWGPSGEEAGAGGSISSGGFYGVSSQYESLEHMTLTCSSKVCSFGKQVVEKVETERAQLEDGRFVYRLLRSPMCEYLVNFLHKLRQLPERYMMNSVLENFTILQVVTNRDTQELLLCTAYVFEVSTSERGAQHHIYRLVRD
Sequence of uPAR.uPA protein-protein interaction (Q03405 23-305 limits assumed): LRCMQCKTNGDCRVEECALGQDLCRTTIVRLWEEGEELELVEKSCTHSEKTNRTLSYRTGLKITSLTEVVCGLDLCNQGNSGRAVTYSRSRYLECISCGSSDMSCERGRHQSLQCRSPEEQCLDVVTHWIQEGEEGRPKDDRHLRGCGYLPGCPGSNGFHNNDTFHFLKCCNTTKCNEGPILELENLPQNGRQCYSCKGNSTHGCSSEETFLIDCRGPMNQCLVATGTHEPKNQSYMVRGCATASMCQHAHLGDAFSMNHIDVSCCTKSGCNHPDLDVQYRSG
Sequence of Cav2.2 α·β protein-protein interaction (P54284 whole entry): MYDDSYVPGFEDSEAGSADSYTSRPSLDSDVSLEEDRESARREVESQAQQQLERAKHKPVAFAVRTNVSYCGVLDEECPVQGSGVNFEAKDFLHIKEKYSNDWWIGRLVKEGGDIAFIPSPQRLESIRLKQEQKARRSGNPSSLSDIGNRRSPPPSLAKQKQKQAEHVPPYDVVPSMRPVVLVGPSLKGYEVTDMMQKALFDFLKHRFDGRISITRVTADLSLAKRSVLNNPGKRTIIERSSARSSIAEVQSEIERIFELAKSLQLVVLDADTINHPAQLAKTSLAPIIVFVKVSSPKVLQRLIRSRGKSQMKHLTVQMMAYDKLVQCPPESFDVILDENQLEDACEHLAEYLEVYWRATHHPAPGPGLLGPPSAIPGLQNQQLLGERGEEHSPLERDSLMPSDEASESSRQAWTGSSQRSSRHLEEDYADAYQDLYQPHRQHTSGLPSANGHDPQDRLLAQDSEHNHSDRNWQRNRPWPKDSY

For the compound `O=C(O)c1ccccc1Nc1cccc(C(F)(F)F)c1` [Compound 1, 2-((3-(trifluoromethyl)phenyl)amino)benzoic acid, reference compound], the “inhibition of TEAD binding to Yap” value in [1] is “did not inhibit”. Besides, the “binding to TEAD2” value in experiment [1] (two sites on TEAD2) was “binds weakly”. Moreover, the “CTGF transcript levels versus vehicle” value in experiment [2] is given as “no effect”. Also, in experiment [3], the “inhibition of TEAD4.Yap1 interaction” value is on record as “did not inhibit”. Besides, in experiment [4], the “effect on GBM43 cancer cell viability / growth” value is “did not affect”. Moreover, the “inhibition of TEAD2 binding to Yap1” value in experiment [5] was “inactive”.
As to `CCC(=O)c1ccccc1Nc1cccc(C(F)(F)F)c1` [Compound 3, 1-(2-((3-(trifluoromethyl)phenyl)amino)phenyl)propan-1-one], the “inhibition of uPAR.uPA interaction” value in [6] is “no inhibition”. Moreover, the “inhibition of TEAD4.Yap1 interaction” value in experiment [3] is given as “did not inhibit”. Further, in experiment [7], the “inhibition of Cav2.2 α·β interaction” value is given as “no inhibition”. Also, the “inhibition of TEAD2 binding to Yap1” value in experiment [5] is “inactive”. For the same compound, the “covalent adduct formation with TEAD4” value in experiment [8] was “no adduct formation”.
Regarding `O=C(CCCCC1SCC2NC(=O)NC21)NCCOCCOCCCCCOc1cccc(Nc2ccccc2C(=O)CCl)c1` (stereo not drawn) [Compound 9, N-(2-(2-((5-(3-((2-(2-chloroacetyl)phenyl)amino)phenoxy)pentyl)oxy)ethoxy)ethyl)-5-(2-oxohexahydro-1H-thieno[3,4-d]imidazol-4-yl)pentanamide], in experiment [9], the “TEAD4 in streptavidin pull-down, immunoblot” value is on record as “TEAD4 was specifically detected”.
